# Reference: PubChem BioAssay (NCI)
# Where “and” joins values, the source holds several entries; their conditions need not be identical. Equal entries are not always repeated.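 A five-concentration, 48-hour dose response in 96-well plates underlies each endpoint, interpolated linearly between surrounding concentrations. GI50 is the concentration that inhibits growth by half. At the TGI there is no net growth.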
# System: DLD-1 colon
# Assay: DTP human tumour cell line panel, 48 h
row,Structure (SMILES),TGI [µM]
1,CN(C)C(=S)SN(C)C(=O)Nc1ccccc1,> 100
2,Cc1ccc(C(=O)/C=C/c2ccccc2O)c(C)c1,> 100
3,O=S(O)CCCCSSCCCCSSCCCCS(=O)O,> 100
4,N#Cc1cnsc1,> 100
5,CC(=O)SCCC1c2[nH]c3ccccc3c2CCN1O (configuration not stated),> 100
6,CCOC(=O)NC(=O)c1cn(CCCOC(=O)NCCCCCCNC(=O)OCCCn2c(=O)c(C(=O)NC(=O)OCC)cn(C)c2=O)c(=O)n(C)c1=O,> 100
7,O=C1C2=C(CC3C(C2)C3(Br)Br)C(=O)C2=C1CC1C(C2)C1(Br)Br (configuration not stated),> 100
8,CC(C)=CC(=O)N1CCN(C(=O)C=C(C)C)CC1,> 100
9,CC(=O)c1ccc(NC(=O)/C(Cc2ccccn2)=N/NC(=O)C[N+](C)(C)C)cc1,> 100
10,CCc1cccc(C)c1NC(C)=O,> 100
11,O=C(CC(=O)N1N=C(c2ccccc2)C(N=Nc2ccc(Cl)cc2)C1=O)Nc1ccccc1Cl (configuration not stated),> 100

# System: DU-145 prostate
# Assay: DTP human tumour cell line panel, 48 h
Structure (SMILES),TGI [µM],GI50 [nM]
O=c1[nH]c(=O)n(C2CC(O)C(CS)O2)cc1F (configuration not stated),> 100,
CCC1(O)C(=O)OCc2c1cc1n(c2=O)Cc2cc3c(N)cccc3nc2-1 (configuration not stated),0.25,
Cc1cc(C2CCCCC2)n(O)c(=O)c1,> 100,2040
CN(C)C(=S)SN(C)C(=O)Nc1ccccc1,> 100,

# System: HCT-15 colon
# Assay: DTP human tumour cell line panel, 48 h
Structure (SMILES),TGI,GI50 [nM]
CCCCCCCCCCCCCCCCOP(=O)(O)Oc1ccc(/C=C\c2ccc(OP(=O)(O)OCCCCCCCCCCCCCCCC)cc2)cc1,> 100 µM,
O=c1[nH]c(=O)n(C2CC(O)C(CS)O2)cc1F (configuration not stated),> 100 µM,
CN(C)C(=S)/N=c1\ss/c(=N\C(=S)N(C)C)n1-c1ccc2c(c1)OCO2,> 100 µM,
COC(=O)C(=O)C(C(=O)C(=O)Nc1ccc(C)cc1C)c1nc2ccccc2[nH]c1=O (configuration not stated),> 100 µM,
Cc1ccc(N=NC(C(=O)c2ccccc2)C(=O)c2ccccc2)cc1,43.6 µM,
Cc1ccc(NC(=O)C2C(=O)N(c3ccc(C)c(C)c3)C(=O)/C2=N/O)cc1C (configuration not stated),> 100 µM,
Nc1c(-c2ccc(Br)cc2)[n+]([O-])c2ccccc2[n+]1[O-],> 100 µM,
C#CC[C@]12CC(=O)CC[C@H]1CC(=O)C2,> 100 µM,
CNC=O.[O]=[Ge].[O]=[Ge].[O]=[Ge].[O]=[Ge][OH].[O]=[Ge][OH],> 100 µM,
N#CCCN(c1ccc(/C=C2\N=C(c3ccc(Cl)cc3)OC2=O)cc1)S(=O)(=O)c1ccccc1,> 100 µM,
Cc1cc(NS(=O)(=O)c2ccc(NC(=O)c3cccc4c(=O)c5ccccc5[nH]c34)cc2)no1,> 100 µM,
O=C(/C=C/c1ccccc1Cl)c1ccccc1Cl,28 µM,
COC(=O)C1=C(c2ccc3c(c2)OCO3)O[C@H](c2ccc3c(c2)OCO3)[C@H]1COC(C)=O,> 100 µM,
CC(C)=[CH][Sb]([Br])([CH]=C(C)C)([CH]=C(C)C)[CH]=C(C)C,> 100 µM,> 100000
CCC1(O)C(=O)OCc2c1cc1n(c2=O)Cc2cc3c(N)cccc3nc2-1 (configuration not stated),25.2 µM,
CCOC(=O)[C@H]1Nc2ccc(C)cc2C2c3ccccc3CC21 (some centres not stated),> 100 µM,
N#CCCN(CCC#N)c1ccc(/C=C2\N=C(CN3C(=O)c4ccccc4C3=O)OC2=O)cc1,> 100 µM,
CSc1nc(NC2OC(COC(C)=O)C(OC(C)=O)C(OC(C)=O)C2OC(C)=O)c2c(OC(C)=O)c(C)c(=O)oc2n1 (configuration not stated),> 100 µM,

Structure (SMILES),TGI,GI50 [nM]
O=C(NC1CCCCCC1)C1C(=O)N(C2CCCCCC2)C(=O)/C1=N\O (configuration not stated),> 100 µM,
COc1ccc(C(=O)O)c(Cc2cccc3ccccc23)c1,> 100 µM,
CC#CC(=O)Nc1ccccc1CC(c1c[nH]c2ccccc12)c1c[nH]c2ccccc12,32.8 µM,
NCCCNCCSSCCCCS(=O)O,> 100 µM,
Cc1cc(C2CCCCC2)n(O)c(=O)c1,> 100 µM and 38.1 µM,655
COC(=O)C(=O)C(C(=O)C=C(C)C)C(=O)C(=O)Nc1ccc(Cl)cc1C (configuration not stated),> 100 µM,
Cc1cccc(C(C)(C)C)c1NC(=O)CCc1n[nH]c(=S)o1,49 µM,
CN(C)C(=S)SN(C)C(=O)Nc1ccccc1,> 85.3 µM,
Cc1ccc(C(=O)/C=C/c2ccccc2O)c(C)c1,> 100 µM,
O=S(O)CCCCSSCCCCSSCCCCS(=O)O,> 100 µM,
N#Cc1cnsc1,> 100 µM,
CC(=O)SCCC1c2[nH]c3ccccc3c2CCN1O (configuration not stated),> 100 µM,
CCOC(=O)NC(=O)c1cn(CCCOC(=O)NCCCCCCNC(=O)OCCCn2c(=O)c(C(=O)NC(=O)OCC)cn(C)c2=O)c(=O)n(C)c1=O,> 100 µM,
O=C1C2=C(CC3C(C2)C3(Br)Br)C(=O)C2=C1CC1C(C2)C1(Br)Br (configuration not stated),> 100 µM,
CC(C)=CC(=O)N1CCN(C(=O)C=C(C)C)CC1,> 100 µM,
CC(=O)c1ccc(NC(=O)/C(Cc2ccccn2)=N/NC(=O)C[N+](C)(C)C)cc1,> 100 µM,
CCc1cccc(C)c1NC(C)=O,> 100 µM,
O=C(CC(=O)N1N=C(c2ccccc2)C(N=Nc2ccc(Cl)cc2)C1=O)Nc1ccccc1Cl (configuration not stated),> 100 µM,

# System: T-47D breast
# Assay: DTP human tumour cell line panel, 48 h
Structure (SMILES),TGI [µM],GI50 [nM]
O=c1[nH]c(=O)n(C2CC(O)C(CS)O2)cc1F (configuration not stated),> 100,
CCC1(O)C(=O)OCc2c1cc1n(c2=O)Cc2cc3c(N)cccc3nc2-1 (configuration not stated),0.654,19.1
Cc1cc(C2CCCCC2)n(O)c(=O)c1,> 100,2630
CN(C)C(=S)SN(C)C(=O)Nc1ccccc1,99.1,

# System: MCF7 breast
# Assay: DTP human tumour cell line panel, 48 h
row,Structure (SMILES),TGI [µM]
1,O=c1[nH]c(=O)n(C2CC(O)C(CS)O2)cc1F (configuration not stated),> 43.5
2,CCC1(O)C(=O)OCc2c1cc1n(c2=O)Cc2cc3c(N)cccc3nc2-1 (configuration not stated),> 39.7
